Assay results taken from patent US20200399222A1, “PICOLINAMIDES AS FUNGICIDES” (Dow AgroSciences LLC, priority 2018, published 2020).
Like-named read-outs stand apart in the source and are kept apart here.

Columns and labels:
Type in all cases: in vivo
[1] = system: Phakopsora pachyrhizi; test: Asian soybean rust (PHAKPA) disease control on soybean seedlings; details: Phakopsora pachyrhizi, High volume application at 25 ppm
Method in brief: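 Compounds in acetone diluted with nine volumes of water containing 0.011% Tween 20, sprayed to run-off on two-week-old Williams 82 soybean seedlings; inoculation 3 days before or 1 day after treatment. Plants held 24 h in dark dew room at 22° C, 100% RH, then at 23° C; disease severity scored on sprayed leaves.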

[2] = system: Zymoseptoria tritici; test: Leaf blotch of wheat (SEPTTR) disease control on wheat seedlings; details: for pest or weed control at 100 ppm: High volume application; for pest or weed control at 121.5 g/ha: Low volume application
[3] = system: Puccinia triticina; test: Wheat brown rust (PUCCRT) disease control on wheat seedlings; details: for pest or weed control at 100 ppm: High volume application; for pest or weed control at 121.5 g/ha: Low volume application
Method in brief: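 Yuma wheat seedlings (first leaf emerged) sprayed to run-off with compound in acetone plus nine volumes water containing 110 ppm Triton X-100, or track-sprayed as EC formulations with 0.1% Trycol 5941. Rust spores inoculated before or after treatment; overnight dark dew, 22 °C, 100% RH, then greenhouse at 24 °C.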

[4] = 72 h, 3 day curative, read-out: PHAKPA 3DC (3 Day Curative) disease control
[5] = 24 h, 1 Day Protectant, read-out: SEPTTR disease control rating, 1DP
[6] = 72 h, 3 Day Curative, read-out: SEPTTR disease control rating, 3DC
[7] = 24 h, 1 Day Protectant, read-out: PUCCRT disease control rating, 1DP
[8] = 72 h, 3 Day Curative, read-out: PUCCRT disease control rating, 3DC
[9] = 24 h, 1 day protectant, read-out: PHAKPA 1DP (1 Day Protectant) disease control

Structure (SMILES) | pest or weed control at 25 ppm [1, 4] | pest or weed control at 100 ppm [2, 5] | pest or weed control at 100 ppm [2, 6] | pest or weed control at 100 ppm [3, 7] | pest or weed control at 100 ppm [3, 8] | pest or weed control at 25 ppm [1, 9] | pest or weed control at 121.5 g/ha [2, 5] | pest or weed control at 121.5 g/ha [2, 6] | pest or weed control at 121.5 g/ha [3, 7] | pest or weed control at 121.5 g/ha [3, 8]
COc1ccnc(C(=O)N[C@@H](C)C(=O)O[C@@H](C)[C@@H](C)c2ccccc2C(F)(F)F)c1O [Example 158] | < 80% | > 80% | < 80% | > 80% | > 80% | – | – | – | – | –
COc1ccnc(C(=O)N[C@@H](C)C(=O)O[C@@H](C)[C@@H](C)C2CCCC2)c1OC(C)=O [Example 247] | < 80% | – | – | – | – | > 80% | < 80% | < 80% | < 80% | < 80%
COc1cc(F)ccc1[C@@H](C)[C@@H](C)OC(=O)[C@H](C)NC(=O)c1nccc(OC)c1OC(C)=O [Example 260] | < 80% | < 80% | < 80% | > 80% | < 80% | > 80% | < 80% | < 0% | < 0% | < 0%
COc1ccnc(C(=O)N[C@@H](C)C(=O)O[C@@H](C)[C@@H](C)c2ccc(C)s2)c1OC(C)=O [Example 259] | < 80% | < 80% | < 0% | > 80% | > 80% | < 80% | < 80% | < 0% | < 80% | < 0%
COc1ccnc(C(=O)N[C@@H](C)C(=O)O[C@H](C)[C@H](C)c2ccccc2C)c1OC(=O)C(C)C [Example 265] | > 80% | – | – | – | – | > 80% | < 80% | < 80% | < 80% | < 80%
COc1ccnc(C(=O)N[C@@H](C)C(=O)O[C@@H](C)[C@@H](C)c2ccc(F)cc2C(F)(F)F)c1O [Example 159] | > 80% | > 80% | > 80% | > 80% | > 80% | – | – | – | – | –
COc1cc(F)ccc1[C@@H](C)[C@@H](C)OC(=O)[C@H](C)NC(=O)c1c(O)c(OC)cc[n+]1[O-] [Example 277] | < 80% | < 80% | < 80% | < 80% | < 0% | < 80% | < 80% | < 80% | < 0% | < 80%
COc1ccnc(C(=O)N[C@@H](C)C(=O)O[C@H](C)[C@H](C)c2c(C)cc(F)cc2C)c1OC(C)=O [Example 254] | > 80% | – | – | – | – | > 80% | > 80% | > 80% | > 80% | > 80%
COc1ccnc(C(=O)N[C@@H](C)C(=O)O[C@@H](C)[C@@H](C)c2c(C)cc(F)cc2C)c1OC(=O)C(C)C [Example 238] | > 80% | – | – | – | – | > 80% | > 80% | > 80% | > 80% | < 80%
COc1ccnc(C(=O)N[C@@H](C)C(=O)O[C@@H](C)[C@@H](C)c2ccc(F)cc2C(F)(F)F)c1OC(C)=O [Example 246] | > 80% | – | – | – | – | > 80% | > 80% | > 80% | > 80% | > 80%
